Measured values from patent US9113629B2, “4-amino-6-(4-substituted-phenyl)-picolinates and 6-amino-2-(4-substituted-phenyl)-pyrimidine-4-carboxylates and their use as herbicides” (DOW AGROSCIENCES LLC, priority 2013, dated 2015).
Where two headings read alike, the source gives them in different places.

What was measured:
[1] = system: Key Broadleaf Weed and Crop Species; assay: Post-emergent Test II herbicidal activity (Table 5); format: in vivo; conditions: post-emergence, 336 h, post-emergent, 14 days after application; for pest or weed control at 70 g/ha: 70 g ai/ha; for pest or weed control at 140 g/ha: 140 g ai/ha
Procedure, shortened: (§1)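 Plants grown in Metro-Mix 360 (pH 6.0–6.8) in a greenhouse (~15 h photoperiod, 23–29 °C day) to first or second true leaf stage, then sprayed with compound in acetone/DMSO/aqueous crop-oil-surfactant carrier at 187 L/ha by track sprayer. Injury visually scored 0–100% versus untreated plants after 14 d.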

[2] = system: Key Grass and Sedge Weeds as well as Grass Crops; assay: Post-emergent Test II herbicidal activity (Table 6); format: in vivo; conditions: post-emergence, 336 h; for pest or weed control at 70 g/ha: application rate 70 g ai/ha; for pest or weed control at 140 g/ha: application rate 140 g ai/ha
Procedure, shortened: as §1

[3] = ABUTH: velvetleaf (Abutilon theophrasti), read-out: Visual Growth Reduction (%) 14 Days After Application ABUTH
[4] = AMARE: redroot pigweed (Amaranthus retroflexus), read-out: Visual Growth Reduction (%) 14 Days After Application AMARE
[5] = BRSNN: oilseed-rape, canola (Brassica napus), read-out: Visual Growth Reduction (%) 14 Days After Application BRSNN
[6] = CHEAL: lambsquarters (Chenopodium album), read-out: Visual Growth Reduction (%) 14 Days After Application CHEAL
[7] = EPHHL: wild poinsettia (Euphorbia heterophylla), read-out: Visual Growth Reduction (%) 14 Days After Application EPHHL
[8] = HELAN: sunflower (Helianthus annuus), read-out: Visual Growth Reduction (%) 14 Days After Application HELAN
[9] = VIOTR: wild pansy (Viola tricolor), read-out: Visual Growth Reduction (%) 14 Days After Application VIOTR
[10] = CYPES: yellow nutsedge (Cyperus esculentus), read-out: Visual Growth Reduction (%) 14 Days After Application, CYPES
[11] = DIGSA: crabgrass (Digitaria sanguinalis), read-out: Visual Growth Reduction (%) 14 Days After Application, DIGSA
[12] = ECHCG: barnyardgrass (Echinochloa crus-galli), read-out: Visual Growth Reduction (%) 14 Days After Application, ECHCG
[13] = ORYSA: rice (Oryza sativa), read-out: Visual Growth Reduction (%) 14 Days After Application, ORYSA
[14] = SETFA: giant foxtail (Setaria faberi), read-out: Visual Growth Reduction (%) 14 Days After Application, SETFA
[15] = SORVU: grain sorghum (Sorghum vulgare), read-out: Visual Growth Reduction (%) 14 Days After Application, SORVU
[16] = ZEAMX: maize, corn (Zea mays), read-out: Visual Growth Reduction (%) 14 Days After Application, ZEAMX

C=Cc1c(N)nc(-c2ccc(C#N)cc2F)nc1C(=O)OC [Compound 98, Methyl 6-amino-2-(4-cyano-2-fluorophenyl)-5-vinylpyrimidine-4-carboxylate]
0 to 29%: pest or weed control at 70 g/ha [1, 3] | pest or weed control at 140 g/ha [1, 3] | pest or weed control at 70 g/ha [1, 4] | pest or weed control at 140 g/ha [1, 4] | pest or weed control at 70 g/ha [1, 5] | pest or weed control at 140 g/ha [1, 5] | pest or weed control at 70 g/ha [1, 6] | pest or weed control at 140 g/ha [1, 6] | pest or weed control at 70 g/ha [1, 7] | pest or weed control at 140 g/ha [1, 7] | pest or weed control at 70 g/ha [1, 8] | pest or weed control at 140 g/ha [1, 8] | pest or weed control at 70 g/ha [1, 9] | pest or weed control at 140 g/ha [1, 9] | pest or weed control at 70 g/ha ([2]; Triticum aestivum, TRZSS (wheat), read-out: Visual Growth Reduction (%) 14 Days After Application, TRZSS) | pest or weed control at 70 g/ha [2, 10] | pest or weed control at 140 g/ha [2, 10] | pest or weed control at 70 g/ha [2, 11] | pest or weed control at 140 g/ha [2, 11] | pest or weed control at 70 g/ha [2, 12] | pest or weed control at 140 g/ha [2, 12] | pest or weed control at 70 g/ha [2, 13] | pest or weed control at 140 g/ha [2, 13] | pest or weed control at 70 g/ha [2, 14] | pest or weed control at 140 g/ha [2, 14] | pest or weed control at 70 g/ha [2, 15] | pest or weed control at 140 g/ha [2, 15] | pest or weed control at 140 g/ha ([2]; TRZSS (wheat, Triticum aestivum), read-out: Visual Growth Reduction (%) 14 Days After Application, TRZSS) | pest or weed control at 70 g/ha [2, 16] | pest or weed control at 140 g/ha [2, 16]
